According to patent publication US8182794B2, “Sunless tanning products and processes” (Concept Laboratories, priority 2003, dated 2012):
“Also recorded” adds a separate entry of the source.

Test system: human skin
Test: Colorimeter (Minolta CR-10) L* a* b* readings of sunless tan on forearm skin
Type: in vivo
Settings: 5% additive with 5% DHA and 5% MSM; Table 1 series
Procedure: An equal amount of each formula solution (approximately 150 mg.) from Table 1 was applied to 2″×2″ adjacent sections of forearm, allowed to dry and covered with clothing for the duration of the testing. The application areas were visibly the same color prior to treatment with the solutions and this was confirmed via calorimeter readings. Readings were typically made 24-48 hours post application of the test solutions. Three calorimeter readings were made of each treatment area with a Minolta CR-10 adapted for human skin readings and the readings were averaged. All eight formulas shown in Table 1 were evaluated on several individuals with Fitzpatrick skin types I-III. Although the absolute values for the tanning responses differed between individuals, the relative differences between formulations in terms of tanning response were the same. Typical results of the testing of one subject were recorded in average L* a* b* color values and are shown in Table 2 along with baseline skin color. […]
The results shown in Table 12 were confirmed by several repeat experiments conducted on several relatively light-skin individuals (Fitzpatrick Type I-III). The data are based on calculation of the average increase in skin darkening based on skin color changes measured by the colorimeter “L” or light-dark value [(Δ L)]; the average increase in skin hue intensity measured simultaneously by both the colorimeter “a*” or red value and the colorimeter “b*” or yellow value (Δ√a^2+b^2); and, the average increase in total tan which adds the changes in darkness and hue increases [(Δ L)+Δ√a^2+b^2].

SMILES | effect of additive on tanning response of DHA and MSM
OCCCCO [butylene glycol] | darker tanning responses; also recorded: significantly increase
CCCC(O)CO (stereo not drawn) [pentylene glycol, 1,2-pentanediol] | darker tanning responses; also recorded: significantly increase
CC(O)CO (stereo not drawn) [propylene glycol] | darker tanning responses
